Laboratory results: the supplement of paper PMC11061612

Columns and labels:
SK-MEL-2 (Melanoma) [1] = assay: combination Emax (second highest fraction inhibited in the dose matrix, 72 h); higher = more inhibition; extreme values may be limits of the assay
Summary of the method: (§1)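 Cell lines in DMEM/F12 or RPMI with 10% FBS were plated in 1536-well plates, held 24 hours at 37°C, 5% CO2, then given two-drug dose matrices for 72 hours (DMSO typically 0.2%). Viability was read by CellTiter-Glo 2.0 luminescence and scaled as inhibition from 0 (vehicle wells) to 1 (blank wells). Combination Emax is the second-highest inhibition in the matrix; Bliss excess is observed combination effect minus expected EA + EB − EA·EB, EA and EB being single-agent effects.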

NB12 (Neuroblastoma) [2] = assay: as above
Summary of the method: as §1

[3] = system: RERF-GC-1B (Gastric Carcinoma); assay: Bliss excess, mean over the matrix (fraction); higher = more synergy
Summary of the method: as §1

SK-MEL-2 (Melanoma) [4] = assay: as above
Summary of the method: as §1

[5] = system: RCM-1 (Colorectal Carcinoma); assay: as above
Summary of the method: as §1

[6] = system: NCI-H2342 (Lung Adenocarcinoma); assay: as above
Summary of the method: as §1

[7] = system: RERF-LC-Sq1 (Squamous Cell Lung Carcinoma); assay: as above
Summary of the method: as §1

[8] = system: CAL-62 (Thyroid Gland Carcinoma); assay: as above
Summary of the method: as §1

NB12 (Neuroblastoma) [9] = assay: as above
Summary of the method: as §1

[10] = system: TE-8 (Esophageal Squamous Cell Carcinoma); assay: as above
Summary of the method: as §1
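Wherever Bliss excess, mean over the matrix is given: after 72 h of two-drug dosing.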

Compound | combination Emax (SK-MEL-2 (Melanoma) [1]) | combination Emax (NB12 (Neuroblastoma) [2]) | Bliss excess [3] | Bliss excess (SK-MEL-2 (Melanoma) [4]) | Bliss excess [5] | Bliss excess [6] | Bliss excess [7] | Bliss excess [8] | Bliss excess (NB12 (Neuroblastoma) [9]) | Bliss excess [10]
CN(C)CCCOc1ccc(-c2ccc3ncc4c(c3c2)n(C2CCOCC2)c(=O)n4C)cn1 [AZD0156] + O=C(c1cc(Cc2n[nH]c(=O)c3ccccc23)ccc1F)N1CCN(C(=O)C2CC2)CC1 [Olaparib] (first compound max 3 µM, partner max 3 µM) | 0.0599 | 0.363 | -0.0079 | -0.045 | 0.003 | -0.0504 | 0.0396 | 0.0939 | 0.0534 | 
C=CCn1c(=O)c2cnc(Nc3ccc(N4CCN(C)CC4)cc3)nc2n1-c1cccc(C(C)(C)O)n1 [AZD1775] + C1CN(CCC1(C(=O)N[C@@H](CCO)C2=CC=C(C=C2)Cl)N)C3=NC=NC4=C3C=CN4 [Capivasertib] (first compound max 3 µM, partner max 3 µM) | 0.637 | 0.746 | -0.0632 | -0.0472 | 0.0141 | -0.0136 | -0.0483 | 0.0089 | -0.0491 | 
COc1nnc2ccc(N3CCC(c4ccc(OCCN5CCN(C)C(=O)[C@H]5C)cc4)CC3)nn12 [AZD5153] + C=CCn1c(=O)c2cnc(Nc3ccc(N4CCN(C)CC4)cc3)nc2n1-c1cccc(C(C)(C)O)n1 [AZD1775] (first compound max 1 µM, partner max 1 µM) | 0.635 | 0.958 | -0.114 | -0.116 | -0.0498 | -0.0347 | -0.1 | -0.0228 | -0.0313 | -0.0426
COc1nnc2ccc(N3CCC(c4ccc(OCCN5CCN(C)C(=O)[C@H]5C)cc4)CC3)nn12 [AZD5153] + CC1(C)CCC(CN2CCN(c3ccc(C(=O)NS(=O)(=O)c4ccc(NCC5CCOCC5)c([N+](=O)[O-])c4)c(Oc4cnc5[nH]ccc5c4)c3)CC2)=C(c2ccc(Cl)cc2)C1 [Venetoclax] (first compound max 1 µM, 7x7, partner max 1 µM) | 0.519 | 0.971 | -0.0442 | -0.0035 | -0.0191 | -0.0384 | -0.0246 | -0.0461 | 0.0928 | -0.0838
COc1nnc2ccc(N3CCC(c4ccc(OCCN5CCN(C)C(=O)[C@H]5C)cc4)CC3)nn12 [AZD5153] + CCN(CCO)CCCOc1ccc2c(Nc3cc(CC(=O)Nc4cccc(F)c4)[nH]n3)ncnc2c1 [AZD2811] (first compound max 1 µM, 7x7, partner max 1 µM) | 0.485 | 0.937 | -0.096 | -0.0912 | -0.03 | -0.01 | 0.0063 | -0.0497 | 0.0269 | -0.0152
COc1nnc2ccc(N3CCC(c4ccc(OCCN5CCN(C)C(=O)[C@H]5C)cc4)CC3)nn12 [AZD5153] + C[C@@H]1COCCN1C2=NC(=NC(=C2)C3(CC3)[S@](=N)(=O)C)C4=C5C=CNC5=NC=C4 [AZD6738] (first compound max 1 µM, 7x7, partner max 10 µM) | 0.693 | 0.958 | 0.0429 | 0.0037 | -0.115 | 0.0133 | 0.0033 | -0.0082 | 0.0067 | 0.0176
COc1nnc2ccc(N3CCC(c4ccc(OCCN5CCN(C)C(=O)[C@H]5C)cc4)CC3)nn12 [AZD5153] + Cc1c2c(nn1C)CSCc1cc(n(C)n1)CSc1cc(c3ccccc3c1)OCCCc1c(C(=O)O)n(C)c3c-2c(Cl)ccc13 [AZD5991] (first compound max 1 µM, 7x7, partner max 1 µM) | 0.984 | 0.942 | 0.0602 | -0.0198 | -0.0512 | 0.0192 | -0.0393 | -0.057 | 0.0267 | 0.0322
COc1nnc2ccc(N3CCC(c4ccc(OCCN5CCN(C)C(=O)[C@H]5C)cc4)CC3)nn12 [AZD5153] + Cn1cnc2c(F)c(Nc3ccc(Br)cc3Cl)c(C(=O)NOCCO)cc21 [Selumetinib] (first compound max 1 µM, 7x7, partner max 10 µM) | 0.926 | 0.799 | 0.0579 | -0.0349 | -0.008 | 0.0267 | 0.102 | 0.0286 | -0.0428 | 0.032
NC1(C(=O)N[C@@H](CCO)c2ccc(Cl)cc2)CCN(c2ncnc3[nH]ccc23)CC1 [Capivasertib] + CC(=O)c1c(C)c2cnc(Nc3ccc(N4CCNCC4)cn3)nc2n(C2CCCC2)c1=O [Palbociclib] (first compound max 10 µM, 7x7, partner max 10 µM) | 0.0717 | 0.399 | -0.0203 | -0.0408 | -0.0058 | 0.0214 | 0.0352 | 0.0169 | 0.0139 | -0.0254
CS(=O)(=O)CCNCc1ccc(-c2ccc3ncnc(Nc4ccc(OCc5cccc(F)c5)c(Cl)c4)c3c2)o1 [Lapatinib] + NC1(c2ccc(-c3nc4ccn5c(=O)[nH]nc5c4cc3-c3ccccc3)cc2)CCC1 [MK-2206] (first compound max 10 µM, 7x7, partner max 10 µM) | 0.692 | 0.843 | 0.0194 | -0.0096 | -0.0323 | -0.0499 |  | -0.0034 | -0.0253 | -0.0004
CC(=O)Nc1cccc(-n2c(=O)n(C3CC3)c(=O)c3c(Nc4ccc(I)cc4F)n(C)c(=O)c(C)c32)c1 [Trametinib] + Cc1nc(-c2cn3c(n2)-c2ccc(-c4cnn(C(C)(C)C(N)=O)c4)cc2OCC3)n(C(C)C)n1 [Taselisib] (first compound max 1 µM, 7x7, partner max 10 µM) |  |  | 0.0909 |  | 0.0117 | 0.0446 | 0.0906 | 0.15 |  | 0.129
CC1(C)CCC(CN2CCN(c3ccc(C(=O)NS(=O)(=O)c4ccc(NCC5CCOCC5)c([N+](=O)[O-])c4)c(Oc4cnc5[nH]ccc5c4)c3)CC2)=C(c2ccc(Cl)cc2)C1 [Venetoclax] + C1CN(CCC1(C(=O)N[C@@H](CCO)C2=CC=C(C=C2)Cl)N)C3=NC=NC4=C3C=CN4 [Capivasertib] (first compound max 1 µM, 7x7, partner max 3 µM) |  |  | -0.0297 |  | -0.0293 | -0.0359 | -0.0391 | -0.0409 |  | -0.0569
CC1(C)CCC(CN2CCN(c3ccc(C(=O)NS(=O)(=O)c4ccc(NCC5CCOCC5)c([N+](=O)[O-])c4)c(Oc4cnc5[nH]ccc5c4)c3)CC2)=C(c2ccc(Cl)cc2)C1 [Venetoclax] + C=CCn1c(=O)c2cnc(Nc3ccc(N4CCN(C)CC4)cc3)nc2n1-c1cccc(C(C)(C)O)n1 [AZD1775] (first compound max 1 µM, partner max 1 µM) |  |  | -0.112 |  | 0.0294 | -0.0184 | -0.0437 | 0.0452 |  | -0.0071
CC1(C)CCC(CN2CCN(c3ccc(C(=O)NS(=O)(=O)c4ccc(NCC5CCOCC5)c([N+](=O)[O-])c4)c(Oc4cnc5[nH]ccc5c4)c3)CC2)=C(c2ccc(Cl)cc2)C1 [Venetoclax] + CCN(CCO)CCCOc1ccc2c(Nc3cc(CC(=O)Nc4cccc(F)c4)[nH]n3)ncnc2c1 [AZD2811] (first compound max 1 µM, 7x7, partner max 1 µM) |  |  | 0.0028 |  | -0.0144 | -0.019 | 0.0197 | 0.0363 |  | 0.0482
CC1(C)CCC(CN2CCN(c3ccc(C(=O)NS(=O)(=O)c4ccc(NCC5CCOCC5)c([N+](=O)[O-])c4)c(Oc4cnc5[nH]ccc5c4)c3)CC2)=C(c2ccc(Cl)cc2)C1 [Venetoclax] + CN(C)CCCOc1ccc(-c2ccc3ncc4c(c3c2)n(C2CCOCC2)c(=O)n4C)cn1 [AZD0156] (first compound max 1 µM, 7x7, partner max 1 µM) |  |  | -0.0356 |  | -0.0086 | -0.0546 | -0.0401 | 0.0063 |  | -0.0574
CC1(C)CCC(CN2CCN(c3ccc(C(=O)NS(=O)(=O)c4ccc(NCC5CCOCC5)c([N+](=O)[O-])c4)c(Oc4cnc5[nH]ccc5c4)c3)CC2)=C(c2ccc(Cl)cc2)C1 [Venetoclax] + COc1cc(Nc2ncc3c(n2)-c2ccc(Cl)cc2C(c2c(F)cccc2OC)=NC3)ccc1C(=O)O [Alisertib] (first compound max 1 µM, 7x7, partner max 10 µM) |  |  | -0.0274 |  | -0.0717 | -0.0792 | -0.0289 | -0.0092 |  | 0.0171
CC1(C)CCC(CN2CCN(c3ccc(C(=O)NS(=O)(=O)c4ccc(NCC5CCOCC5)c([N+](=O)[O-])c4)c(Oc4cnc5[nH]ccc5c4)c3)CC2)=C(c2ccc(Cl)cc2)C1 [Venetoclax] + C[C@@H]1COCCN1C2=NC(=NC(=C2)C3(CC3)[S@](=N)(=O)C)C4=C5C=CNC5=NC=C4 [AZD6738] (first compound max 1 µM, 7x7, partner max 10 µM) |  |  | -0.0579 |  | -0.0542 | -0.0209 | -0.0476 | 0.0023 |  | -0.0603
CC1(C)CCC(CN2CCN(c3ccc(C(=O)NS(=O)(=O)c4ccc(NCC5CCOCC5)c([N+](=O)[O-])c4)c(Oc4cnc5[nH]ccc5c4)c3)CC2)=C(c2ccc(Cl)cc2)C1 [Venetoclax] + C[C@@H](Nc1cc(F)cc(F)c1)c1cc(C(=O)N(C)C)cc2c(=O)cc(N3CCOCC3)oc12 [AZD8186] (first compound max 1 µM, 7x7, partner max 3 µM) |  |  | -0.028 |  | -0.0495 | -0.0643 | -0.0242 | -0.0173 |  | -0.0522
CC1(C)CCC(CN2CCN(c3ccc(C(=O)NS(=O)(=O)c4ccc(NCC5CCOCC5)c([N+](=O)[O-])c4)c(Oc4cnc5[nH]ccc5c4)c3)CC2)=C(c2ccc(Cl)cc2)C1 [Venetoclax] + Cc1cc2ncnn2cc1Nc1ncc2c(n1)n(C1CCOCC1)c(=O)n2C [AZD7648] (first compound max 1 µM, 7x7, partner max 10 µM) |  |  | -0.0276 |  | -0.0533 | -0.0473 | -0.0268 | -0.025 |  | -0.0121
CC1(C)CCC(CN2CCN(c3ccc(C(=O)NS(=O)(=O)c4ccc(NCC5CCOCC5)c([N+](=O)[O-])c4)c(Oc4cnc5[nH]ccc5c4)c3)CC2)=C(c2ccc(Cl)cc2)C1 [Venetoclax] + Cn1cnc2c(F)c(Nc3ccc(Br)cc3Cl)c(C(=O)NOCCO)cc21 [Selumetinib] (first compound max 1 µM, 7x7, partner max 3 µM) |  |  | 0.0095 |  | -0.0369 | -0.0628 | -0.0467 | -0.0114 |  | -0.0282
